The nature of data set [1]: in vitro. Conditions: Sprague-Dawley, rat, hepatocytes.
The target of data set [2] is 5-hydroxytryptamine receptor 6 (Homo sapiens, UniProt P50406). As to the kind of experiment: Displacement of [3H]-methyllysergic acid diethylamide from human 5-HT6 receptor expressed in CHO cells after 30 mins by liquid scintillation counting. The format is cell-based.
A short description of data set [3]: in vitro. Conditions: human, hepatocytes.
The target in a further data set is Cytochrome P450 2C19 (Homo sapiens, UniProt P33261). In words: Inhibition of CYP 2C19. It counts as ADME.
Sequence of Cytochrome P450 2C19 (P33261 whole entry): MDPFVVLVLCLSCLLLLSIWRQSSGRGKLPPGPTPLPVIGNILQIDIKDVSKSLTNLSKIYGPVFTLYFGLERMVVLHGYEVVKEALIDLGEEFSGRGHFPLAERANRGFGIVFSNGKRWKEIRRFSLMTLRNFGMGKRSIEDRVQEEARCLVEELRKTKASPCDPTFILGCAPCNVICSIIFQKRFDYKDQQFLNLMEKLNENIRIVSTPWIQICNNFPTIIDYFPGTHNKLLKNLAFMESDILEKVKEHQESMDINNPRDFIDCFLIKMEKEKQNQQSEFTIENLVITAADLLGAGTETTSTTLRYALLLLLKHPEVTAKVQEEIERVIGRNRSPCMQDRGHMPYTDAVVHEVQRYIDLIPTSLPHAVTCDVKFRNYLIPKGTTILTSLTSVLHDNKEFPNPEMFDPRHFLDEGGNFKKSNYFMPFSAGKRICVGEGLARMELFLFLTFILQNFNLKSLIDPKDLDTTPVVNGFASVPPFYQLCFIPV
Data set [4] deals with 5-hydroxytryptamine receptor 2B (Homo sapiens, UniProt P41595). As to the kind of experiment: Inhibition of human 5-HT2B receptor.
The next data set deals with Cytochrome P450 2D6 (Homo sapiens, UniProt P10635). In words: Inhibition of CYP 2D6. The format is ADME.
The nature of data set [5]: Oral bioavailability in Wistar rat at 10 mg/kg. The format is ADME, organism-based. Conditions: in vivo.
Data set [6] in a line: Plasma protein binding in human at 5 uM by LC/MS/MS analysis. The conditions noted are these: read-out: PPB (converted). The format is ADME, cell-free.
The next data set concerns the target Cytochrome P450 3A4 (Homo sapiens, UniProt P08684). In words: Inhibition of CYP 3A4. The format is ADME.
A further data set deals with Cytochrome P450 2C9 (Homo sapiens, UniProt P11712). In words: Inhibition of CYP 2C9. It counts as ADME.
In the next data set the target is Cytochrome P450 1A2 (Homo sapiens, UniProt P05177). In words: Inhibition of CYP 1A2. It counts as ADME.
The nature of data set [7]: Half life in Wistar rat plasma at 1 mg/kg, iv. The format is ADME, organism-based. Further details: dose 1 mg/kg, route intravenous.
Data set [8] in a line: Bioavailability in Wistar rat at 10 mg/kg, ip. The format is ADME, organism-based. The conditions noted are these: in vivo.
The next data set relates to LLC-PK1. Conditions: pig.
Data set [9] deals with Cavia porcellus. In words: Cardiotoxicity in telemetered conscious freely moving Dunkin-Hartley guinea pig assessed as prolongation of electrocardiographic QTc interval at 100 mg/kg, sc administered for 120 mins. It counts as toxicity, organism-based. Further details: dose 100 mg/kg, route subcutaneous. The conditions noted are these: in vivo, 2 h.
The nature of data set [10]: Half life in Wistar rat plasma at 10 mg/kg, po. The format is ADME, organism-based. Further details: dose 10 mg/kg, route oral.
Data set [11] can be described thus: Tmax in Wistar rat. It counts as ADME, organism-based. Conditions: in vivo.
Data set [12] concerns the target Voltage-gated inwardly rectifying potassium channel KCNH2 (Homo sapiens, UniProt Q12809).
Data set [13] is described as follows: Ratio of drug level in brain to plasma in Wistar rat at 10 mg/kg, po. It counts as ADME, organism-based. Further details: dose 10 mg/kg, route oral. Conditions: brain and plasma.
The nature of data set [14]: Fraction unbound in rat brain homogenate at 1 uM after 6 hrs by […]. It counts as ADME, tissue-based.
The test system of data set [15] is Cavia porcellus. In words: Cardiotoxicity in telemetered conscious freely moving Dunkin-Hartley guinea pig assessed as prolongation of electrocardiographic QTc interval at 10 mg/kg, po measured up to 120 mins. The format is toxicity, organism-based. Also noted: dose 10 mg/kg, route oral. The conditions noted are these: in vivo, 2 h.
For data set [16], the system named is Cavia porcellus. In words: Cardiotoxicity in telemetered conscious freely moving Dunkin-Hartley guinea pig assessed as prolongation of electrocardiographic QTc interval at 50 mg/kg, po measured up to 120 mins. The format is toxicity, organism-based. Also noted: dose 50 mg/kg, route oral. The conditions noted are these: in vivo, 2 h.
Data set [17] in a line: Plasma protein binding in rat at 5 uM by LC/MS/MS analysis. It counts as ADME, cell-free. Conditions: read-out: PPB (converted).
Data set [18] concerns the target Muscarinic acetylcholine receptor M5 (Homo sapiens, UniProt P08912). In words: Inhibition of human muscarinic M5 receptor.
Data set [19] addresses Muscarinic acetylcholine receptor M4 (Homo sapiens, UniProt P08173). As to the kind of experiment: Inhibition of human muscarinic M4 receptor.
Data set [20] deals with Muscarinic acetylcholine receptor M3 (Homo sapiens, UniProt P20309). As to the kind of experiment: Inhibition of human muscarinic M3 receptor.
Sequence of Muscarinic acetylcholine receptor M3 (P20309 whole entry): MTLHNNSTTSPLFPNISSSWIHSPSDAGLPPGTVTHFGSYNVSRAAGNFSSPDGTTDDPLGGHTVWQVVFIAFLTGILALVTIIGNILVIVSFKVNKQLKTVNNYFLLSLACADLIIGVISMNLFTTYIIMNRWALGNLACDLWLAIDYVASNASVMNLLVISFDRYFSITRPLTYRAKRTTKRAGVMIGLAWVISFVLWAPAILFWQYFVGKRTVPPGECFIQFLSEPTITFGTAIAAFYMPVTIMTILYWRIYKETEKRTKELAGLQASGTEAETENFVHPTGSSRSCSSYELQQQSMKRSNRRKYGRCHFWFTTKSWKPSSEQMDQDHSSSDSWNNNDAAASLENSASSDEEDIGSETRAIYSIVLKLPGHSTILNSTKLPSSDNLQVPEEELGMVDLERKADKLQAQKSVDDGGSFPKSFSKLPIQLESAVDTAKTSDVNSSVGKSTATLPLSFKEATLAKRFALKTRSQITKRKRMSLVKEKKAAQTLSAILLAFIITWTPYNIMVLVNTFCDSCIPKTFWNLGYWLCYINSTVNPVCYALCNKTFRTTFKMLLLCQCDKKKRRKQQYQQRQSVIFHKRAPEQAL
The target of data set [21] is T1, 5-hydroxytryptamine receptor 1A (Homo sapiens, UniProt P08908).
T1 sequence (P08908 whole entry): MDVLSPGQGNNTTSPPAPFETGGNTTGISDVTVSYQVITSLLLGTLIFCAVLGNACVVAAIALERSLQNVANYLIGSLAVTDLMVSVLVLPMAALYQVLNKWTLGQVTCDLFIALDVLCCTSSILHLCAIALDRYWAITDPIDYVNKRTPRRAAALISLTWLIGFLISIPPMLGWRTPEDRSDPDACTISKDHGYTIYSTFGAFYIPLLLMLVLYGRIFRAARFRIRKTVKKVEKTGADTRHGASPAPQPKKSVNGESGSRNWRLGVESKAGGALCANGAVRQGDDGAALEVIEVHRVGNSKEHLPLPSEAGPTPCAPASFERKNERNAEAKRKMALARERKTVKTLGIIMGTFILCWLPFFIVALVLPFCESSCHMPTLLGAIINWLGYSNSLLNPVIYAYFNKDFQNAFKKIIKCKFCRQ
In words: Inhibition of human 5-HT1A receptor.

Data set [22] addresses 5-hydroxytryptamine receptor 3A (Homo sapiens, UniProt P46098). In words: Inhibition of human 5-HT3 receptor.
Data set [23] addresses 5-hydroxytryptamine receptor 1D (Homo sapiens, UniProt P28221). As to the kind of experiment: Inhibition of human 5-HT1D receptor.
A short description of data set [24]: Inhibition of human sigma receptor.
The target of data set [25] is Muscarinic acetylcholine receptor M1 (Homo sapiens, UniProt P11229). In words: Inhibition of human muscarinic M1 receptor.
Data set [26] has as its target Muscarinic acetylcholine receptor M2 (Homo sapiens, UniProt P08172). As to the kind of experiment: Inhibition of human muscarinic M2 receptor.
Data set [27] has as its target 5-hydroxytryptamine receptor 2A (Homo sapiens, UniProt P28223). In words: Inhibition of human 5-HT2A receptor.
In data set [28] the target is 5-hydroxytryptamine receptor 7 (Homo sapiens, UniProt P34969). As to the kind of experiment: Inhibition of human 5-HT7 receptor.
Sequence of 5-hydroxytryptamine receptor 7 (P34969 whole entry): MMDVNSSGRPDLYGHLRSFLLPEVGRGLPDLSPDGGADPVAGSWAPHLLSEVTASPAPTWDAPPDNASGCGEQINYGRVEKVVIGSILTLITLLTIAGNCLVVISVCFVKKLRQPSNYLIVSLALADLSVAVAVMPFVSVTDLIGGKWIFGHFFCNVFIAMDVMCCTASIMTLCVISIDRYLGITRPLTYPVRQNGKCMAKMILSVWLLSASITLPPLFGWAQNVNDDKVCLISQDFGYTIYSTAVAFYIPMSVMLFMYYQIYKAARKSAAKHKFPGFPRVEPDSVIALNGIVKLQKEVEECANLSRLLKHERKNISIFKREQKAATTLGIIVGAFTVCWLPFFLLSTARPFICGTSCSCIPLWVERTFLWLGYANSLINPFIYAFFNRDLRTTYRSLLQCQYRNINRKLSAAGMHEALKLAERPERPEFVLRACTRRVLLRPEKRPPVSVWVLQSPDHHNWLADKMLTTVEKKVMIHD
For data set [29], the target named is 5-hydroxytryptamine receptor 2C (Homo sapiens, UniProt P28335). In words: Inhibition of human 5-HT2C receptor.
Sequence of 5-hydroxytryptamine receptor 2C (P28335 whole entry): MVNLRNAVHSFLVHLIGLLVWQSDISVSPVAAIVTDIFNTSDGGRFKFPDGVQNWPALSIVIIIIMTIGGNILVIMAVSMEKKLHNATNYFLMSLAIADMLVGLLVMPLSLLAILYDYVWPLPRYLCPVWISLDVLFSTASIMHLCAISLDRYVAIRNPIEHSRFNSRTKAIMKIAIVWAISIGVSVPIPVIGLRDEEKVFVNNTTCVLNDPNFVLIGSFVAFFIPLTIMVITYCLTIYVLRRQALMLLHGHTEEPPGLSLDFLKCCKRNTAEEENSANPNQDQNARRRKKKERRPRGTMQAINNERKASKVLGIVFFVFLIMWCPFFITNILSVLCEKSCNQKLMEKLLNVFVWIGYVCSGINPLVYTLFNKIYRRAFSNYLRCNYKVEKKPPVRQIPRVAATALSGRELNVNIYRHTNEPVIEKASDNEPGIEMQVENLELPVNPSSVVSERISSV
For a further data set, the target named is D(2) dopamine receptor (Homo sapiens, UniProt P14416). In words: Inhibition of human dopamine D2 receptor.
Sequence of D(2) dopamine receptor (P14416 whole entry): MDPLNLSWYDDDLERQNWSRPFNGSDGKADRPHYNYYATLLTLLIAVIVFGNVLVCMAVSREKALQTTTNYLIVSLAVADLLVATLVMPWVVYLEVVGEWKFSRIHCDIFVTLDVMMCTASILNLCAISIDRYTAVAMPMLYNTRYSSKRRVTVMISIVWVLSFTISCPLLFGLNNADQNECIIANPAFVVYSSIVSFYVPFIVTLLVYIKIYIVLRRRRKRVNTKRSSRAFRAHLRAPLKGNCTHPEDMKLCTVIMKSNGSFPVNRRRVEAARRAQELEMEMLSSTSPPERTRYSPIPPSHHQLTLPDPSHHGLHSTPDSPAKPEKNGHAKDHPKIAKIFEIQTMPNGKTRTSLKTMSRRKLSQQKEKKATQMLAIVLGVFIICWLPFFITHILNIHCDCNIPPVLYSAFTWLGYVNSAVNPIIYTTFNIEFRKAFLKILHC

For orientation: hepatocyte CLint means a measure of how fast metabolising enzymes remove a compound, apart from limits set by blood flow. Read a high hepatocyte CLint as rapid turnover. As a reminder, the IC50 is the concentration that gives 50% inhibition. Low readings indicate higher potency, high ones lower potency. One may read the bioavailability as the share of a dose that reaches the circulation, judged against a reference dose that is usually intravenous. Low readings indicate little systemic uptake, high ones much systemic uptake. Broadly, the half-life is how long it takes for the measured level to halve. Low values mean fast loss, high ones slow loss. In general, Tmax refers to the time from dosing to the highest level. The Kp is tissue or fluid exposure divided by exposure in the circulation. Broadly, the pKi is the negative decadic logarithm of the Ki, by convention in mol/L.

Bounds are passed on as bounds.

Sequence of 5-hydroxytryptamine receptor 1D (P28221 whole entry): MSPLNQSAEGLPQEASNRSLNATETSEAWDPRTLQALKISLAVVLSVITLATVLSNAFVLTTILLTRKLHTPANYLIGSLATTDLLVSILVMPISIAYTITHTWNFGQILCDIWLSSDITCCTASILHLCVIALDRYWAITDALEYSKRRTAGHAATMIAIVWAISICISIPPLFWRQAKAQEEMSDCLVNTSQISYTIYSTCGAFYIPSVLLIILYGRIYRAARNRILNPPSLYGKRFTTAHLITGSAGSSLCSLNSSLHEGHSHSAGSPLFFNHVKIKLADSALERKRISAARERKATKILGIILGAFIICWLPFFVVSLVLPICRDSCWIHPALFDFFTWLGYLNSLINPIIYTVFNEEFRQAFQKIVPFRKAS
Sequence of 5-hydroxytryptamine receptor 6 (P50406 whole entry): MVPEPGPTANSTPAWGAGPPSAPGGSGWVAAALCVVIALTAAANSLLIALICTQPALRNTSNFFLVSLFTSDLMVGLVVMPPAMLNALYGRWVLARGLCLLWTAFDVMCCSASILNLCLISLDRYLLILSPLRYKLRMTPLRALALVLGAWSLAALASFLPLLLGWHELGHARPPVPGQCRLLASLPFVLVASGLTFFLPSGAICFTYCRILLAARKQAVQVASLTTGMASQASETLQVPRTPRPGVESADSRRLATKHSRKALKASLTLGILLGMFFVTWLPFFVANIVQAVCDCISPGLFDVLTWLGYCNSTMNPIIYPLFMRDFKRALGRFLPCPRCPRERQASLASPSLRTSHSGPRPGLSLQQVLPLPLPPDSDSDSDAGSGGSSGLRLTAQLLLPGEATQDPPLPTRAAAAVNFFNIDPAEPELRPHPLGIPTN
Sequence of Voltage-gated inwardly rectifying potassium channel KCNH2 (Q12809 whole entry): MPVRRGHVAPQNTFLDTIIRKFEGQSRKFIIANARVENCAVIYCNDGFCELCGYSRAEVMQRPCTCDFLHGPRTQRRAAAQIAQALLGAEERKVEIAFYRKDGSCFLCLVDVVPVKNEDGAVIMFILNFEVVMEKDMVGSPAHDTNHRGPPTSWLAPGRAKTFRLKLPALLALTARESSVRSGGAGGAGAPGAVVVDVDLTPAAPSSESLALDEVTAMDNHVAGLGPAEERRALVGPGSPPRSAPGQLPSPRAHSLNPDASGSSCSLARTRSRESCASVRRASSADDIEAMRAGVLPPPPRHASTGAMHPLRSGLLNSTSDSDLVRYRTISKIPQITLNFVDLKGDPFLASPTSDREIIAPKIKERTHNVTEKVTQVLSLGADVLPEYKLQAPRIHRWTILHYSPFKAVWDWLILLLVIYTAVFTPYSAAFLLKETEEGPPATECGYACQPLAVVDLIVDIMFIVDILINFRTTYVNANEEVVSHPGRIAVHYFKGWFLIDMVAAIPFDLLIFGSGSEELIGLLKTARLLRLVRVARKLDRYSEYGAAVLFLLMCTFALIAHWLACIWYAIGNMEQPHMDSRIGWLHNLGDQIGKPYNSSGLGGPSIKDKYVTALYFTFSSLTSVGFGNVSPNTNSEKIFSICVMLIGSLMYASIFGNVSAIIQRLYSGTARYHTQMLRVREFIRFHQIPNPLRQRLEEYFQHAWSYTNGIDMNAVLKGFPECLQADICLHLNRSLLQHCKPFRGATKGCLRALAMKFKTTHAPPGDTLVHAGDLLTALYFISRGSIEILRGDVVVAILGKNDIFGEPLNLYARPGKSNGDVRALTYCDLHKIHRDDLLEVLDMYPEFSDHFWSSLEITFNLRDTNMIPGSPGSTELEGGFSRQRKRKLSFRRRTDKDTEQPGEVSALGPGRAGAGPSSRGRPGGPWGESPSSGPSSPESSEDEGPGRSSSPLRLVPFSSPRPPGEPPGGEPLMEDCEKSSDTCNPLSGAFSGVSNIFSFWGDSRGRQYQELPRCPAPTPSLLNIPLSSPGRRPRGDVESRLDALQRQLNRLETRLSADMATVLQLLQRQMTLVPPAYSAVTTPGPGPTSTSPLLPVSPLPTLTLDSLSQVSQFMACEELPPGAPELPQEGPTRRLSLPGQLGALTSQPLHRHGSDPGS
Sequence of 5-hydroxytryptamine receptor 2A (P28223 whole entry): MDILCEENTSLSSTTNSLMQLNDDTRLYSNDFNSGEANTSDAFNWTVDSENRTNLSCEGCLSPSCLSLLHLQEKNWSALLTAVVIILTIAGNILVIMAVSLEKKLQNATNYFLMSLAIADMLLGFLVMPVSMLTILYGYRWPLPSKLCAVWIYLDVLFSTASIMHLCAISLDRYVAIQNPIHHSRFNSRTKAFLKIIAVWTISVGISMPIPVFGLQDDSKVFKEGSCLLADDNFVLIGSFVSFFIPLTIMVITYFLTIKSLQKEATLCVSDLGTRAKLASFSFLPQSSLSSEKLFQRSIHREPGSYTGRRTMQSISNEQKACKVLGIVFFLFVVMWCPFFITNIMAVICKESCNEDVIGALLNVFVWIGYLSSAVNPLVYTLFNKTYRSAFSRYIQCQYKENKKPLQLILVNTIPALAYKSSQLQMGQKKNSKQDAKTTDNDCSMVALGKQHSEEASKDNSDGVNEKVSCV
Description for LLC-PK1: Permeability across pig LLC-PK1 cell line overexpressing human MDR1 at 3 hrs by LC/MS analysis

With `CCN/C(=N\S(=O)(=O)c1cc(Cl)ccc1Cl)N1CC(CC)C=N1` (configuration not stated), the hepatocyte CLint at 1 ug/mL in the data set “in vitro [1]” was determined as 116 µL/min/1e6 cells. The Ki in [2] came out at 119 nM.
The like results for `CCN/C(=N\S(=O)(=O)c1c(Cl)cccc1Cl)N1CC(CC)C=N1` (configuration not stated) were, in that order, 126 µL/min/1e6 cells and 197 nM.
Turning to `CCN/C(=N\S(=O)(=O)c1cccc(Cl)c1F)N1CC(CC)C=N1` (configuration not stated), the hepatocyte CLint at 1 ug/mL in the data set “in vitro [3]” was determined as 36 µL/min/1e6 cells; in “in vitro [1]”, 116 µL/min/1e6 cells. In data set [2], this molecule had a Ki of 2.7 nM.
In the case of `CCN/C(=N\S(=O)(=O)c1ccc2ccccc2c1)N1CC(CC)C=N1` (configuration not stated), the hepatocyte CLint at 1 ug/mL was determined as 41 µL/min/1e6 cells in the data set “in vitro [3]” and 139 µL/min/1e6 cells in the data set “in vitro [1]”. This molecule also gave a Ki in [2] of 17.2 nM.
The molecule `CCNC(=N[S+]([O-])c1sc2ccc(Cl)cc2c1C)N1CC(CC)C=N1` (configuration not stated) showed a Ki in data set [2] of 8.5 nM.
With `CCN/C(=N\S(=O)(=O)c1c(Cl)nc2sccn12)N1CC(CC)C=N1` (configuration not stated), the hepatocyte CLint at 1 ug/mL in “in vitro [3]” is 20 µL/min/1e6 cells; in “in vitro [1]”, 116 µL/min/1e6 cells. In data set [2], this molecule gave a Ki of 7.9 nM.
Turning to `CCN/C(=N\S(=O)(=O)c1c(C)nn(C)c1Cl)N1CC(CC)C=N1` (configuration not stated), the values for the hepatocyte CLint at 1 ug/mL in the data set “in vitro [3]” and in the data set “in vitro [1]” were 11 µL/min/1e6 cells and 53 µL/min/1e6 cells, respectively.
Regarding `CCN/C(=N\S(=O)(=O)c1ccc(S(C)(=O)=O)cc1)N1CC(CC)C=N1` (configuration not stated), the hepatocyte CLint at 1 ug/mL in “in vitro [3]” was found to be 4 µL/min/1e6 cells; in the data set “in vitro [1]”, 20 µL/min/1e6 cells.
`CCN/C(=N\S(=O)(=O)c1cccc(Cl)c1)N1CC(C)(C)C=N1`: the IC50 (against Cytochrome P450 2C19; against Cytochrome P450 2D6; against Cytochrome P450 3A4; against Cytochrome P450 2C9; against Cytochrome P450 1A2; in [12]) was greater than 10000 nM throughout. Besides, the results for the Ki in data set [4] and in data set [2] were 7940 nM and 24.1 nM, respectively. Also, the results for the bioavailability in data set [5] and in [8] were 7% and 45%, respectively. Further, the fraction unbound at 5 µM in [6] was 0.37. Further, the half-life in [7] and in data set [10] was 2 h each time. This molecule displayed a permeability with LLC-PK1 (llc-pk1, 3 h) of 41%. For the same molecule, the Activity result in the data set on Cavia porcellus [9] is “Non-toxic”. The Tmax in data set [11] amounted to 0.5 h. For the same molecule, the Kp in data set [13] turned out to be 1. This molecule showed a fraction unbound at 6 h, 1 µM in data set [14] of 0.01.
On to `CCN/C(=N\S(=O)(=O)c1cccc(Cl)c1)N1CC(CC)(CC)C=N1`, for which the Ki in data set [2] came to 49.9 nM.
Still for that read-out and setting: with `CCN/C(=N\S(=O)(=O)c1cccc(Cl)c1)N1CC2(C=N1)CCCC2` the figure was 6.4 nM; with `CCN/C(=N\S(=O)(=O)c1cccc(Cl)c1)N1CC2(C=N1)CCCCC2`, 5.2 nM.
As for `CCN/C(=N\S(=O)(=O)c1cccc(Cl)c1)N1CC2(C=N1)CCNCC2`, the results for the Activity entry in the data set on Cavia porcellus [15] and with Cavia porcellus [16] were “Non-toxic” and “Toxic”, respectively. Moreover, the hepatocyte CLint at 1 ug/mL in the data set “in vitro [3]” came to 3 µL/min/1e6 cells; in the data set “in vitro [1]”, 25 µL/min/1e6 cells. Further, the fraction unbound at 5 µM in data set [6] is 0.34; in data set [17], 0.41. For the same molecule, the Ki in [18], in data set [19], in [20], in data set [21] (read-out: pKi (converted)), in data set [22] and in [23] (read-out: pKi (converted)) was 10000 nM throughout. The Ki in data set [25] and in data set [26] was 10000 nM each time. In addition, the pKi in [24] is on record as 5. The same molecule yielded a permeability in the data set with LLC-PK1 (llc-pk1, 3 h) of 14.7%. This molecule also showed an IC50 in data set [12] of 7940 nM.
The molecule `CCN=C(NS(=O)(=O)c1cccc(Cl)c1)N1CC(CF)(CF)C=N1` came in with a Ki in [2] of 92 nM.
For `CCN/C(=N\S(=O)(=O)c1cccc(Cl)c1)N1CC(CC)C=N1` (racemic), the Ki (in data set [27]; in [28]; in data set [29]; in data set [21] (read-out: Ki); on D(2) dopamine receptor; in data set [23] (read-out: Ki)) was greater than 1000 nM throughout.
With `CCN/C(=N\S(=O)(=O)c1cccc(Cl)c1)N1N=CCC1c1ccccc1` (racemic), the hepatocyte CLint at 1 ug/mL turned out to be 73 µL/min/1e6 cells in “in vitro [3]” and 116 µL/min/1e6 cells in “in vitro [1]”. Moreover, the Ki (in data set [27]; in data set [28]; in data set [29]; in data set [21] (read-out: Ki); at D(2) dopamine receptor; in [23] (read-out: Ki)) was greater than 1000 nM throughout. For the same molecule, the permeability in the data set on LLC-PK1 (LLC-PK1, 3 h) is 38.5%. For the same molecule, the IC50 in data set [12] is greater than 10000 nM.
Consider `CCN/C(=N\S(=O)(=O)c1cccc(Cl)c1)N1N=CCC1c1ccncc1` (racemic), for which the hepatocyte CLint at 1 ug/mL was 50 µL/min/1e6 cells in “in vitro [3]” and 87 µL/min/1e6 cells in the data set “in vitro [1]”. The Ki in [2] was 322 nM.
In the case of `CCN/C(=N\S(=O)(=O)c1cccc(Cl)c1)N1N=CCC1c1ccco1` (racemic), the hepatocyte CLint at 1 ug/mL in the data set “in vitro [3]” is 92 µL/min/1e6 cells; in “in vitro [1]”, 198 µL/min/1e6 cells. Further, the Ki in data set [2] came to 8.2 nM.
The like results for `CCN=C(NS(=O)(=O)c1cccc(Cl)c1)N1N=CCC1c1ccc(F)cc1` (racemic) were, in that order, 107 µL/min/1e6 cells, 126 µL/min/1e6 cells and 138 nM.

For the origin of these results see ChEMBL document CHEMBL1833864, “N'-(arylsulfonyl)pyrazoline-1-carboxamidines as novel, neutral 5-hydroxytryptamine 6 receptor (5-HT₆R) antagonists with unique structural features” (J Med Chem, 2011).
